Experimental data published in ChEMBL document CHEMBL1149927, “Synthesis of 7-methoxy-2-(1,3-dithiolan-2-ylidene)cephem sulphones. A new series of human leukocyte elastase inhibitors” (Bioorg Med Chem Lett, 1996).

Biological target: T1, Neutrophil elastase (Homo sapiens, UniProt P08246)
T1 sequence (P08246 whole entry): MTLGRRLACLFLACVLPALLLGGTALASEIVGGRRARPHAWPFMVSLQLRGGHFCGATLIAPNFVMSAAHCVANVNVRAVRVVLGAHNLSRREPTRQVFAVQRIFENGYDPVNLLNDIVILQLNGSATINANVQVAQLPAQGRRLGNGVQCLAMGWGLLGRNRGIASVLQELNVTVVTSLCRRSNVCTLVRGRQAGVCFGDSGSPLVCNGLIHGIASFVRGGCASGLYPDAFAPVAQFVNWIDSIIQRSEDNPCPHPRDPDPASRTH
Assay: Inhibitory activity against human sputum elastase (HSE)

| SMILES | IC50 [nM] |
| --- | --- |
| CO[C@H]1C(=O)N2C(C(=O)OC(C)(C)C)=C(C)C(=C(SC)SC)S(=O)(=O)C12 (stereo not given in full) | 74 |
| CO[C@H]1C(=O)N2C(C(=O)OC(C)(C)C)=C(C)CS(=O)(=O)C12 (stereo not given in full) | 1800 |
| CO[C@H]1C(=O)N2C(C(=O)OC(C)(C)C)=C(C)C(=C3SCCS3)S(=O)(=O)C12 (stereo not given in full) | 380 |

Next, values leading:

| IC50 [nM] | SMILES |
| --- | --- |
| 320 | CO[C@H]1C(=O)N2C(C(=O)OC(C)(C)C)=C(C)C(=C3SCC(OC(C)=O)CS3)S(=O)(=O)C12 (stereo not given in full) |
| 330 | CO[C@H]1C(=O)N2C(C(=O)OC(C)(C)C)=C(C)C(=C3SCC(O)CS3)S(=O)(=O)C12 (stereo not given in full) |
